Laboratory results from patent EP4603105A1, “PHARMACEUTICAL COMPOSITION CONTAINING CYCLIC COMPOUND HAVING SELECTIVE KRAS INHIBITORY EFFECT AGAINST HRAS AND NRAS” (CHUGAI SEIYAKU KABUSHIKI KAISHA, priority 2022, dated 2024).
*1 amine or outer side, *2 acyl side, *3 side chain or, on linkers, in order; H or OH if unused. Where a SMILES comes first, the peptide text is derived from it. Bridges are numbered along the chain shown (N, C = ends). [ ]: non-standard residue; d: D form. The star is where a group is joined. hPhe(3,5-F2-4-CF3) = N[C@@H](CCc1cc(F)c(C(F)(F)F)c(F)c1)C(=O)O; hPhe(3-Cl-4-CF3) = N[C@@H](CCc1ccc(C(F)(F)F)c(Cl)c1)C(=O)O; NPrPhe(4-CF3) = CCCN[C@@H](Cc1ccc(C(F)(F)F)cc1)C(=O)O; NMeGly(cPent) = CN[C@H](C(=O)O)C1CCCC1; Pro(4,4-F2) = O=C(O)[C@@H]1CC(F)(F)CN1; X3 = CCC[C@](C)(N[*:1])C(=O)[*:2]; NMeD = CN[C@@H](CC(=O)O)C(=O)O; NMeL = CN[C@@H](CC(C)C)C(=O)O; Morpholide = C1CN(*)CCO1; Aze = O=C(O)[C@@H]1CCN1; Ac4c = NC1(C(=O)O)CCC1; Sar = CNCC(=O)O

Assays:
HRAS wild-type protein = HRAS wild-type protein (Homo sapiens, UniProt P01112); assay: Binding to HRAS by surface plasmon resonance (SPR), KD and KD ratio to KRAS
Chain of HRAS wild-type protein (P01112 whole entry): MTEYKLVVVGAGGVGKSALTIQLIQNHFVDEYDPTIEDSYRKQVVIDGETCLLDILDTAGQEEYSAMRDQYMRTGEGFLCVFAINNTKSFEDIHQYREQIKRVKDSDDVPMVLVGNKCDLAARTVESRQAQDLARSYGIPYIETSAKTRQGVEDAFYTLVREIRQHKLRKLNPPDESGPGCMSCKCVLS
Procedure, shortened: (§1)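 GDP-loaded biotinylated Avi-tag RAS proteins (E. coli-expressed) captured on a Biotin CAPture chip at ~100–300 RU; single-cycle kinetics at 30°C, 100 µL/min, 75 s injections of rising compound concentrations. HBS pH 7.4 running buffer with 1 mM DTT, 10 mM MgCl2, 10 µM GDP, 4% DMSO. KD from 1:1 binding fit.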

[1] = tested on: human lung cancer strain NCI-H441; format: cell-based
Procedure, shortened: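 Readout: […] after the ATP-based reagent. Compound: serial dilutions in dimethyl sulfoxide.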

[2] = molecular target: GDP-bound NRAS wild-type protein (Homo sapiens, UniProt P01111); assay: Binding to NRAS by surface plasmon resonance (SPR), KD and KD ratio to KRAS
Chain of GDP-bound NRAS wild-type protein (P01111 whole entry): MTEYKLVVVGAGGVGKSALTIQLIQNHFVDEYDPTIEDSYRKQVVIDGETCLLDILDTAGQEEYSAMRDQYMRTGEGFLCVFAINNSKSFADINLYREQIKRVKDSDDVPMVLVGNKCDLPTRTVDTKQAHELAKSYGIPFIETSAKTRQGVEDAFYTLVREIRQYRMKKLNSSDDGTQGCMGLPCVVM
Procedure, shortened: as §1

[3] = ratio of KD value for HRAS wild-type protein to KD value for KRAS (SPR)
[4] = ratio of KD value for GDP-bound NRAS wild-type protein to KD value for KRAS (SPR)
[5] = ratio of KD for HRAS wild-type protein to KD for KRAS
[6] = ratio of KD for GDP-bound NRAS wild-type protein to KD for KRAS

| Compound | IC50 [1] [nM] | HRAS /KRAS (HRAS wild-type protein; [3]) | NRAS /KRAS [2, 4] | HRAS /KRAS (HRAS wild-type protein; [5]) | NRAS /KRAS [2, 6] | HRAS /KRAS (HRAS wild-type protein; ratio of the KD value with respect to HRAS wild-type protein to the KD value with respect to KRAS) | NRAS /KRAS ([2]; ratio of the KD value with respect to GDP-bound NRAS wild-type protein to the KD value with respect to KRAS) |
| --- | --- | --- | --- | --- | --- | --- | --- |
| CC[C@H](C)[C@@H]1NC(=O)[C@H](COC)N(C)C(=O)C[C@@H](C(=O)N2CCOCC2)N(C)C(=O)[C@H](C2CCCC2)N(C)C(=O)C2(CCC2)NC(=O)[C@@H]2C[C@@H](OC)CN2C(=O)[C@H](CCc2cc(F)c(C(F)(F)F)c(F)c2)NC(=O)CN(C)C(=O)[C@H](Cc2ccc(C(F)(F)F)cc2)N2CCCCC[C@@H](C2=O)N(C)C(=O)CN(C)C1=O [PP0837] | 63.4 |  |  | B (a compound having 3 or more and less than 10 is denoted as B) | B (a compound having 3 or more and less than 10 is denoted as B) |  |  |
| CCO[C@@H]1C[C@H]2C(=O)NC3(CC(C)(C)C3)C(=O)N(C)[C@@H](C3CCCC3)C(=O)N(C)[C@H](C(=O)N(C)C)CC(=O)N(C)[C@@H](COC)C(=O)N[C@@H]([C@@H](C)CC)C(=O)N(C)CC(=O)N(C)[C@H]3C/C=C\CCN(C3=O)[C@@H](Cc3ccc(C(F)(F)F)cc3)C(=O)N(C)CC(=O)N[C@@H](CCc3ccc(C(F)(F)F)c(Cl)c3)C(=O)N2C1 [PP1753] | 5.9 | A (a compound having 10 or more and less than 20 is denoted as A) | A (a compound having 10 or more and less than 20 is denoted as A) |  |  |  |  |
| CCCN1C(=O)CN(C)C(=O)CN(C)C(=O)[C@H]([C@@H](C)CC)NC(=O)[C@H](CC(C)C)N(C)C(=O)C[C@@H](C(=O)N(C)C)N(C)C(=O)[C@H](C2CCCC2)N(C)C(=O)C2(CCC2)NC(=O)[C@@H]2CC(F)(F)CN2C(=O)[C@H](CCc2ccc(C(F)(F)F)c(Cl)c2)NC(=O)CN(C)C(=O)[C@@H]1Cc1ccc(C(F)(F)F)cc1 [PP0414] ([NMeL]I[Sar][Sar][NPrPhe(4-CF3)][Sar][hPhe(3-Cl-4-CF3)][Pro(4,4-F2)][Ac4c][NMeGly(cPent)][NMeD]-NMe2; lactam N-11) | 1.9 |  |  |  |  | C (A compound having a KD ratio of 0.1 or more and less than 3 is denoted as C) | B (a compound having 3 or more and less than 10 is denoted as B) |
| CCCN1C(=O)[C@@H]2CCN2C(=O)CN(C)C(=O)[C@H]([C@@H](C)CC)NC(=O)[C@H](CC(C)C)N(C)C(=O)C[C@@H](C(=O)N2CCOCC2)N(C)C(=O)[C@H](C2CCCC2)N(C)C(=O)[C@](C)(CCC)NC(=O)[C@@H]2CCCN2C(=O)[C@H](CCc2cc(F)c(C(F)(F)F)c(F)c2)NC(=O)CN(C)C(=O)[C@@H]1Cc1ccc(C(F)(F)F)cc1 [PP0794] ([NMeL]I[Sar][Aze][NPrPhe(4-CF3)][Sar][hPhe(3,5-F2-4-CF3)]P[X3][NMeGly(cPent)][NMeD]-Morpholide; lactam N-11) | 122 |  |  | B (a compound having 3 or more and less than 10 is denoted as B) | C (A compound having a KD ratio of 0.1 or more and less than 3 is denoted as C) |  |  |

Continued, in another order:

| IC50 [1] [nM] | Compound | HRAS /KRAS (HRAS wild-type protein; [3]) | NRAS /KRAS [2, 4] | HRAS /KRAS (HRAS wild-type protein; [5]) | NRAS /KRAS [2, 6] | HRAS /KRAS (HRAS wild-type protein; ratio of the KD value with respect to HRAS wild-type protein to the KD value with respect to KRAS) | NRAS /KRAS ([2]; ratio of the KD value with respect to GDP-bound NRAS wild-type protein to the KD value with respect to KRAS) |
| --- | --- | --- | --- | --- | --- | --- | --- |
| 39.9 | CCO[C@@H]1C[C@H]2C(=O)NC3(CC(C)(C)C3)C(=O)N(C)[C@@H](C3CCCC3)C(=O)N(CC)[C@H](C(=O)N(C)C)CC(=O)N(C)[C@@H](CC(C)C)C(=O)N[C@@H]([C@@H](C)CC)C(=O)NCC(=O)N(C)[C@H]3C/C=C\CCN(C3=O)[C@@H](Cc3ccc(C(F)(F)F)cc3)C(=O)N(C)CC(=O)N[C@@H](CCc3cc(F)c(C(F)(F)F)c(F)c3)C(=O)N2C1 [PP1773] | A (a compound having 10 or more and less than 20 is denoted as A) | A (a compound having 10 or more and less than 20 is denoted as A) |  |  |  |  |
| 20.8 | CCC(CC)[C@H]1C(=O)N(C)[C@H](C(=O)N2CCCC2)CC(=O)N(C)[C@H]2CCC/C=C/c3ccc(cc3)C[C@@H](C(=O)N(C)CC(=O)N[C@@H](CCc3ccc(Cl)c(Cl)c3)C(=O)N3CCC[C@H]3C(=O)NC3(CC(C)(C)C3)C(=O)N1C)N1CC/C=C\C[C@@H](C1=O)N(C)C(=O)CN(C)C(=O)[C@H]([C@@H](C)CC)NC2=O [PP2604] |  |  | A (a compound having 10 or more and less than 20 is denoted as A) | AA (a compound having 20 or more is denoted as AA) |  |  |
| 10.7 | CC[C@H](C)[C@@H]1NC(=O)[C@H](CC)N(C)C(=O)C[C@@H](C(=O)N(C)C)N(C)C(=O)[C@H](C2CCCC2)N(C)C(=O)C2(CC(C)(C)C2)NC(=O)[C@@H]2C[C@H](C)CN2C(=O)[C@H](CCc2ccc(C(F)(F)F)c(OC)c2)NC(=O)CN(C)C(=O)[C@H](Cc2ccc(C)cc2)N2CC/C=C\C[C@@H](C2=O)N(C)C(=O)CN(C)C1=O [PP1836] | B (a compound having 3 or more and less than 10 is denoted as B) | A (a compound having 10 or more and less than 20 is denoted as A) |  |  |  |  |
